In US6737383B1, “Herbicidal oxadiazolidines” (priority 1999, dated 2004):

Key:
bedstraw = test: Test B pre/postemergence bedstraw; type: in vivo, Galium aparine
How it was run: (§1)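 Test chemicals in a non-phytotoxic solvent mixture with surfactant were sprayed preemergence onto planted seeds and postemergence onto plants 2 to 18 cm tall (1- to 4-leaf stage). After twelve to sixteen days in a greenhouse, injury was visually rated against untreated controls from 0 (no effect) to 10 (complete control).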

surinam grass = test: Test B pre/postemergence surinam grass; type: in vivo, Brachiaria decumbens
How it was run: as §1

cocklebur = test: Test B pre/postemergence cocklebur; type: in vivo, Xanthium strumarium
How it was run: as §1

corn = test: Test B pre/postemergence corn; type: in vivo, Zea mays
How it was run: as §1

crabgrass = test: Test B pre/postemergence crabgrass; type: in vivo, Digitaria sanguinalis
How it was run: as §1

morningglory = test: Test B pre/postemergence morningglory; type: in vivo, Ipomoea hederacea
How it was run: as §1

pigweed = test: Test B pre/postemergence pigweed; type: in vivo, Amaranthus retroflexus; conditions: for Plant response rating, Redroot pigweed: Postemergence
How it was run: as §1

rape = test: Test B pre/postemergence rape; type: in vivo, Brassica napus
How it was run: as §1

soybean = test: Test B pre/postemergence soybean; type: in vivo, Glycine max; conditions: for Plant response rating, Soybean: Postemergence
How it was run: as §1

sugar beet = test: Test B pre/postemergence sugar beet; type: in vivo, Beta vulgaris; conditions: for Plant response rating, Sugarbeets: Postemergence
How it was run: as §1

velvetleaf = test: Test B pre/postemergence velvetleaf; type: in vivo, Abutilon theophrasti; conditions: for Plant response rating, Velvetleaf: Postemergence
How it was run: as §1

wild oat = test: Test B pre/postemergence wild oat; type: in vivo, Avena fatua; conditions: for Plant response rating, Wild oats: Postemergence
How it was run: as §1

rice = test: Test B flood test rice; type: in vivo, Oryza sativa
How it was run: (§2)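 Flood test on plants grown to the 2-leaf stage; treated plants kept in greenhouse twelve to sixteen days, then visually rated against controls on a 0 (no effect) to 10 (complete control) scale.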

smallflower flatsedge = test: Test B flood test smallflower flatsedge; type: in vivo, Cyperus difformis
How it was run: as §2

duck salad = test: Test B flood test duck salad; type: in vivo, Heteranthera limosa
How it was run: as §2

bamyardgrass = test: Test B flood test barnyardgrass; type: in vivo, Echinochloa crus-galli
How it was run: as §2

[1] = Postemergence, Rate 62 g/ha, scale of 0 to 10, 0 is no effect, 10 is complete control
[2] = Preemergence, Rate 62 g/ha, scale 0 to 10 (0 no effect, 10 complete control)
[3] = Preemergence, Rate 125 g/ha, scale 0 to 10, 0 is no effect, 10 is complete control
[4] = Preemergence, Rate 500 g/ha, scale of 0 to 10 where 0 is no effect and 10 is complete control
[5] = Postemergence, Rate 125 g/ha, scale 0 to 10, 0 is no effect, 10 is complete control
[6] = Postemergence, Rate 500 g/ha, scale of 0 to 10 where 0 is no effect and 10 is complete control
[7] = Rate 250 g/ha, Postemergence, scale of 0 to 10 where 0 is no effect and 10 is complete control
[8] = Rate 500 g/ha, scale of 0 to 10 where 0 is no effect and 10 is complete control
[9] = Rate 250 g/ha, scale of 0 to 10 where 0 is no effect and 10 is complete control
[10] = Rate 62 g/ha, flood test species, Pre-emergence, visual evaluation after twelve to sixteen days
[11] = Rate 125 g/ha, under heading Pre-emergence, flood test species, visual evaluation after twelve to sixteen days
[12] = Rate 250 g/ha, Pre-emergence (flood test species), scale 0 to 10, 0 is no effect, 10 is complete control
[13] = Rate 500 g/ha, Pre-emergence section of Table B, 0 to 10 scale (0 no effect, 10 complete control)

## CC(C)N(C(=O)n1oc(=O)n(C(C)C(=O)c2ccccc2)c1=O)c1ccccc1 (stereo not drawn) [Compound 570]
bedstraw; [1]
  Bedstraw plant response rating: 0
bedstraw; [2]
  Bedstraw plant response rating: 0
bedstraw; [3]
  Bedstraw plant response rating: 0
bedstraw; Preemergence, Rate 250 g/ha
  Bedstraw plant response rating (0 to 10 scale): 0
bedstraw; [4]
  Bedstraw plant response rating: 0
Surinam grass; [1]
  B. signalgrass plant response rating: 0
Surinam grass; [5]
  B. signalgrass plant response rating: 0
Surinam grass; [6]
  Plant response rating, B. signalgrass: 0
Surinam grass; [2]
  B. signalgrass plant response rating: 0
Surinam grass; [3]
  B. signalgrass plant response rating: 0
Surinam grass; Preemergence, Rate 250 g/ha
  B. signalgrass plant response rating (0 to 10 scale, 0 is no effect, 10 is complete control): 0
Surinam grass; [4]
  B. signalgrass plant response rating: 0
Surinam grass; [7]
  Plant response rating, B. signalgrass: 0
cocklebur; [1]
  Cocklebur plant response rating: 0
cocklebur; [5]
  Cocklebur plant response rating: 0
cocklebur; [6]
  Plant response rating, Cocklebur: 0
cocklebur; [2]
  Cocklebur plant response rating: 0
cocklebur; [3]
  Cocklebur plant response rating: 0
cocklebur; Preemergence, Rate 250 g/ha
  Cocklebur plant response rating (0 to 10 scale): 0
cocklebur; [4]
  Cocklebur plant response rating: 0
cocklebur; [7]
  Plant response rating, Cocklebur: 0
corn; [1]
  Corn plant response rating: 0
corn; [5]
  Corn plant response rating: 0
corn; [6]
  Plant response rating, Corn: 0
corn; [2]
  Corn plant response rating: 0
corn; [3]
  Corn plant response rating: 0
corn; Preemergence, Rate 250 g/ha
  Corn plant response rating (0 to 10 scale): 0
corn; [4]
  Corn plant response rating: 0
corn; [7]
  Plant response rating, Corn: 0
crabgrass; [1]
  Crabgrass plant response rating: 0
crabgrass; [5]
  Crabgrass plant response rating: 0
crabgrass; [6]
  Plant response rating, Crabgrass: 0
crabgrass; [2]
  Crabgrass plant response rating: 9
crabgrass; [3]
  Crabgrass plant response rating: 9
crabgrass; Preemergence, Rate 250 g/ha
  Crabgrass plant response rating (0 to 10 scale): 9
crabgrass; [4]
  Crabgrass plant response rating: 10
crabgrass; [7]
  Plant response rating, Crabgrass: 0
morningglory; [1]
  Morningglory plant response rating: 4
morningglory; [5]
  Morningglory plant response rating: 10
morningglory; [6]
  Plant response rating, Morningglory: 10
morningglory; [2]
  Morningglory plant response rating: 0
morningglory; [3]
  Morningglory plant response rating: 0
morningglory; Preemergence, Rate 250 g/ha
  Morningglory plant response rating (0 to 10 scale): 0
morningglory; [4]
  Morningglory plant response rating: 0
morningglory; [7]
  Plant response rating, Morningglory: 10
pigweed; [8]
  Plant response rating, Redroot pigweed: 0
pigweed; [2]
  Redroot pigweed plant response rating: 0
pigweed; [3]
  Redroot pigweed plant response rating: 0
pigweed; Preemergence, Rate 250 g/ha
  Redroot pigweed plant response rating (0 to 10 scale): 0
pigweed; [4]
  Redroot pigweed plant response rating: 8
pigweed; [9]
  Plant response rating, Redroot pigweed: 0
rape; [1]
  Rape plant response rating: 0
rape; [5]
  Rape plant response rating: 0
rape; [6]
  Plant response rating, Rape: 0
rape; [2]
  Rape plant response rating: 0
rape; [3]
  Rape plant response rating: 0
rape; Preemergence, Rate 250 g/ha
  Rape plant response rating (0 to 10 scale): 0
rape; [4]
  Rape plant response rating: 0
rape; [7]
  Plant response rating, Rape: 0
soybean; [8]
  Plant response rating, Soybean: 3
soybean; [2]
  Soybean plant response rating: 0
soybean; [3]
  Soybean plant response rating: 0
soybean; Preemergence, Rate 250 g/ha
  Soybean plant response rating (0 to 10 scale): 0
soybean; [4]
  Soybean plant response rating: 0
soybean; [9]
  Plant response rating, Soybean: 3
Sugar beet; [8]
  Plant response rating, Sugarbeets: 0
Sugar beet; [2]
  Sugarbeets plant response rating: 0
Sugar beet; [3]
  Sugarbeets plant response rating: 0
Sugar beet; Preemergence, Rate 250 g/ha
  Sugarbeets plant response rating (0 to 10 scale): 0
Sugar beet; [4]
  Sugarbeets plant response rating: 2
Sugar beet; [9]
  Plant response rating, Sugarbeets: 0
velvetleaf; [8]
  Plant response rating, Velvetleaf: 0
velvetleaf; [2]
  Velvetleaf plant response rating: 0
velvetleaf; [3]
  Velvetleaf plant response rating: 0
velvetleaf; Preemergence, Rate 250 g/ha
  Velvetleaf plant response rating (0 to 10 scale): 0
velvetleaf; [4]
  Velvetleaf plant response rating: 0
velvetleaf; [9]
  Plant response rating, Velvetleaf: 0
Wild oat; [8]
  Plant response rating, Wild oats: 0
Wild oat; [2]
  Wild oats plant response rating: 0
Wild oat; [3]
  Wild oats plant response rating: 0
Wild oat; Preemergence, Rate 250 g/ha
  Wild oats plant response rating (0 to 10 scale): 0
Wild oat; [4]
  Wild oats plant response rating: 0
Wild oat; [9]
  Plant response rating, Wild oats: 0
rice; [10]
  Plant response rating, Rice (0 to 10 scale, 0 is no effect, 10 is complete control): 0
rice; [11]
  Rice plant response rating (0 to 10 scale, 0 is no effect, 10 is complete control): 0
rice; [12]
  Rice plant response rating: 0
rice; [13]
  Rice plant response rating: 0
Smallflower flatsedge; [10]
  Plant response rating, S. Flatsedge (0 to 10 scale, 0 is no effect, 10 is complete control): 0
Smallflower flatsedge; [11]
  S. Flatsedge plant response rating (0 to 10 scale, 0 is no effect, 10 is complete control): 0
Smallflower flatsedge; [12]
  S. Flatsedge plant response rating: 0
Smallflower flatsedge; [13]
  S. Flatsedge plant response rating: 0
Duck salad; [10]
  Plant response rating, Ducksalad (0 to 10 scale, 0 is no effect, 10 is complete control): 0
Duck salad; [11]
  Ducksalad plant response rating (0 to 10 scale, 0 is no effect, 10 is complete control): 0
Duck salad; [12]
  Ducksalad plant response rating: 0
Duck salad; [13]
  Ducksalad plant response rating: 0
bamyardgrass; [10]
  Plant response rating, Barnyardgrass (0 to 10 scale, 0 is no effect, 10 is complete control): 0
bamyardgrass; [11]
  Barnyardgrass plant response rating (0 to 10 scale, 0 is no effect, 10 is complete control): 0
bamyardgrass; [12]
  Barnyardgrass plant response rating: 0
bamyardgrass; [13]
  Barnyardgrass plant response rating: 0
